According to patent US20130261142A1, “COMPOUNDS USED FOR TREATING CANCER AND THE USE THEREOF” (priority 2010, published 2013):
“Also recorded” adds a separate entry of the source.

Columns and labels:
OVCA sps cells = test: LOPAC compounds tested on OVCA sps cells, MTS / ATP-based assay (Table 3); assay type: cell-based; conditions: proliferation and differentiation
Method: CP70 sps cells were seeded in a 96-well culture plate (1×10^3 cells/well) and cultured for 24 hr, and then treated with 30 μM of various compounds selected from the LOPAC database. Following 3-day treatment, the vitality of the treated cells was measured by CellTiter-Glo® Luminescent Cell Vitality Assay kit (Promega) according to the manufacturer's instructions.
(§1) The vitality of the treated cells was measured by MTS assay using MTS-based CellTiter 96 aqueous non-radioactive cell proliferation assay kit (Promega) according to the manufacturer's instructions.

CP70 sps cells [1] = test: Cytotoxicity / vitality of CP70 sps cells (MTS assay); conditions: FIG. 14 / FIG. 15
Method: as §1
The vitality of the CP70 sps cells was measured by MTS assay. For preclinical test, two groups with five mice each were i.p. injected with 1×10^4 of CP70 sps cells alone or followed by Niclosamide treatment (10 mg/kg/daily) from day 1 to day 47, respectively. The body weights of the two groups of mice were monitored every 3 days during day 36 to day 48. After 48 days, the mice were sacrificed to examine the tumor nodules formation in the abdominal cavity.

Cyclin D1 = test: Protein expression in Niclosamide-treated MCF-7 sps cells: Cyclin D1; assay type: cell-based; conditions: MCF-7 sps cells treated with Niclosamide
Hes-1 = test: Protein expression in Niclosamide-treated MCF-7 sps cells: Hes-1; assay type: cell-based; conditions: MCF-7 sps cells treated with Niclosamide
PTCH = test: Protein expression in Niclosamide-treated MCF-7 sps cells: PTCH; assay type: cell-based; conditions: MCF-7 sps cells treated with Niclosamide
OCT4 = test: Flow cytometry of OCT4 in MCF-7 sps cells; assay type: cell-based; conditions: 5 μM
MDA-MB 231 cells = test: Inhibition of MDA-MB 231 cells; assay type: cell-based, human; conditions: 3 μM
MDA-MB231 SPS cells = test: Survival of MDA-MB231 SPS cells; assay type: cell-based, human; conditions: following Niclosamide treatment
MCF-7 sps cells [2] = test: MCF-7 sps tumors in NOD/SCID mice; assay type: in vivo; conditions: MCF-7 sps cells in NOD/SCID mice, 5 μM Niclosamide
CP70 sps cells [3] = test: CP70 sps tumors in NOD/SCID mice (preclinical test); assay type: in vivo
Method: For preclinical test, two groups with five mice each were i.p. injected with 1×10^4 of CP70 sps cells alone or followed by Niclosamide treatment (10 mg/kg/daily) from day 1 to day 47, respectively. […] After 48 days, the mice were sacrificed to examine the tumor nodules formation in the abdominal cavity.

[4] = tested on: OVCICs sps cells collected from ovarian cancer patient(s); test: Patients' OVCA specimen-derived cells (pdOVCICs / OVCICs sps), MTS assay; assay type: cell-based, human; conditions: in vitro
Method: A total of 5000 pdOVCICs were seeded onto each well in 96-well plates and each plate was treated with different concentrations of Niclosamide in duplicates for 3 days. The vitality of pdOVCICs cells was measured by MTS assay.

MCF-7 SPS cells [5] = test: LOPAC compounds tested on MCF-7 SPS cells (Table 2); conditions: Compounds that inhibit cancer stem cells, 3 μM stated for Niclosamide
Text: (§3) The morphology and number of the spheroids were further analyzed by software image pro plus.

MCF-7 SPS cells [6] = test: MCF-7 SPS spheroid proliferation and differentiation
Text: as §3

MCF-7 cells = test: Toxicity of Paclitaxol on MCF-7 cells; assay type: cell-based
Text: (§2) Next, we compared the toxicity effects of the anti-cancer drug, Paclitaxol, on MCF-7 cells, MCF-7 SPS cells, MDA-MB 231 cells and MDA-MB 231 SPS.

MCF-7 SPS cells [7] = test: Toxicity of Paclitaxol on MCF-7 sps cells; assay type: cell-based
Text: as §2

shh = test: Signaling inhibitors on MCF-7 SPS cells: shh; assay type: cell-based; conditions: 30 μM, 3 days
Text: Moreover, MCF-7 SPS cells were affected by the expression of Wnt, NOTCH and shh which caused morphological changes. […] Based on the aforementioned experiments, MCF-7 SPS cells contain cancer stem cells that can undergo further differentiation (FIG. 5B).

Compound: O=C(Nc1ccc([N+](=O)[O-])cc1Cl)c1cc(Cl)ccc1O [Niclosamide]
- Cancer cell survival (%) (OVCA sps cells): 34.86%
- numbers of ovarian cancer stem cells in CP70 SPS cell culture in vitro (CP70 sps cells [1]): inhibited
- inhibition of Cyclin D1 expression (Cyclin D1): 57.4%
- inhibition of Hes-1 expression (Hes-1): 33.1%
- inhibition of PTCH expression (PTCH): 79.2%
- expression of OCT4 (OCT4): higher expression
- inhibition of MDA-MB 231 cells (MDA-MB 231 cells): significantly inhibited
- survival of MDA-MB231 SPS cells (MDA-MB231 SPS cells): negatively correlated with the treatment
- sizes and weights of the tumors vs untreated mice (MCF-7 sps cells [2]): smaller and lighter
- sizes and weights of the tumors vs untreated mice (CP70 sps cells [3]; CP70 sps cells in NOD/SCID mice, 5 μM Niclosamide): significantly different; also recorded: smaller and lighter
- inhibition on cancer stem cells in pre-clinical ovarian cancer studies (CP70 sps cells [3]; mouse, in vivo): successful inhibition
- numbers of ovarian cancer cells in the tumors (CP70 sps cells [3]; tumors from Niclosamide-treated animals (FIG. 13B)): inhibited
- differentiation and growth of ovarian cancer cells [4]: successfully inhibited
- Cancer cell survival (%) (MCF-7 SPS cells [5]): 1.4%
- inhibition of MCF-7 sps cells (MCF-7 SPS cells [6]; 3 μM): significantly inhibited
- proliferation and differentiation of the spheroid (MCF-7 SPS cells [6]; MCF-7 SPS, 3 μM and 30 μM for 48 hr): efficiently inhibit
- differentiation and proliferation / formation of MCF-7 SPS cells (MCF-7 SPS cells [6]; concentration not given): inhibit the formation; also recorded: significantly inhibited

Compound: CC(=O)O[C@H]1C(=O)[C@@]2(C)[C@H]([C@H](OC(=O)c3ccccc3)[C@]3(O)C[C@H](OC(=O)[C@H](O)[C@@H](NC(=O)c4ccccc4)c4ccccc4)C(C)=C1C3(C)C)[C@]1(OC(C)=O)CO[C@@H]1C[C@@H]2O [Paclitaxol]
- toxicity effect on MCF-7 cells (MCF-7 cells): notably inhibited
- toxicity effect on MCF-7 sps cells (MCF-7 SPS cells [7]): no effect

Compound: CC1=C2C[C@H]3[C@@H](CC=C4C[C@@H](O)CC[C@@]43C)[C@@H]2CC[C@]12O[C@@H]1C[C@H](C)CN[C@H]1[C@H]2C [cyclopamide]
- expression of shh (shh): inhibited
